Reference: patent publication US6340670B1, “Acetal benzylmaltosides as inhibitors of smooth muscle cell proliferation” (American Home Products Corporation, priority 1998, dated 2002)
Where two headings read alike, the source gives them in different places.

How the values were obtained:
[1] = system: Porcine Smooth Muscle Cell; assay: Effects of Compounds on Cell Proliferation Using 3H Thymidine Incorporation; type: cell-based; conditions: serum/growth factor stimulated cells, 24-36 h incubation, read-out: Porcine Smooth Muscle Cell Antiproliferation IC50
How it was run: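 Early-passage (3-7) sub-confluent smooth muscle cells, serum-starved 24-48 h, were stimulated with growth factor or serum and treated with compound (1 to 100 μM, from 50% ethanol stock) for 24-36 h at 37° C. Proliferation by ^3H-thymidine incorporation into TCA-insoluble material, triplicate, relative to maximally stimulated cells (100%); given as IC50 or % inhibition.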

Row | SMILES | melting point | IC50 ([1]; Sus scrofa) | IC50 [1]
1 | CC(=O)Nc1cc(COC2OC(COC(=O)c3ccc(Cl)cc3)C(OC3OC4COC(c5ccccc5)OC4C(O)C3O)C(O)C2O)ccc1Cl (stereo not shown) [Example 36, 4-Chloro-benzoic acid 6-(3-acetylamino-4-chloro-benzyloxy)-3-(7,8-dihydroxy-2-phenyl-hexahydro-pyrano[3,2-d][1,3]dioxin-6-yloxy)-4,5-dihydroxy-tetrahydro-pyran-2-ylmethyl ester] | > 113 °C (dec.) | 89 nM | 
2 | CC(=O)Nc1cc(COC2OC(COC(=O)C(c3ccccc3)c3ccccc3)C(OC3OC4COC(c5ccccc5)OC4C(OC(C)=O)C3OC(C)=O)C(OC(C)=O)C2OC(C)=O)ccc1Cl (stereo not shown) [Example 51, Diphenyl-acetic acid 4,5-diacetoxy-6-(3-acetylamino-4-chloro-benzyloxy)-3-(7,8-diacetoxy-2-phenyl-hexahydro-pyrano[3,2-d][1,3]dioxin-6-yloxy)-tetrahydro-pyran-2-ylmethyl ester] | > 99 °C (dec.) | 354 nM | 
3 | COc1ccc(CC(=O)OCC2OC(OCc3ccc(Cl)c(NC(C)=O)c3)C(O)C(O)C2OC2OC3COC(c4ccccc4)OC3C(O)C2O)cc1OC (stereo not shown) [Example 52, (3,4-Dimethoxy-phenyl)-acetic acid 6-(3-acetylamino-4-chloro-benzyloxy)-3-(7,8-dihydroxy-2-phenyl-hexahydro-pyrano[3,2-d][1,3]dioxin-6-yloxy)-4,5-dihydroxy-tetrahydro-pyran-2-ylmethyl ester] | > 116 °C (dec.) | 48 nM | 
4 | CC(=O)Nc1cc(COC2OC(COC(=O)c3cccnc3)C(OC3OC4COC(c5ccccc5)OC4C(OC(C)=O)C3OC(C)=O)C(OC(C)=O)C2OC(C)=O)ccc1Cl (stereo not shown) [Example 55, Nicotinic acid 4,5-diacetoxy-6-(3-acetylamino-4-chloro-benzyloxy)-3-(7,8-diacetoxy-2-phenyl-hexahydro-pyrano[3,2-d][1,3]dioxin-6-yloxy)-tetrahydro-pyran-2-ylmethyl ester] | > 112 °C (dec.) | 304 nM | 
5 | CC(=O)Nc1cc(COC2OC(COC(=O)c3ccc(Cl)cc3)C(OC3OC4COC(c5ccccc5)OC4C(OC(C)=O)C3OC(C)=O)C(OC(C)=O)C2OC(C)=O)ccc1Cl (stereo not shown) [Example 37, 4-Chloro-benzoic acid 4,5-diacetoxy-6-(3-acetylamino-4-chloro-benzyloxy)-3-(7,8-diacetoxy-2-phenyl-hexahydro-pyrano[3,2-d][1,3]dioxin-6-yloxy)-tetrahydro-pyran-2-ylmethyl ester] | 114 to 115 °C | 588 nM | 
6 | COc1ccc(C(=O)OCC2OC(OCc3ccc(Cl)c(NC(C)=O)c3)C(OC(C)=O)C(OC(C)=O)C2OC2OC3COC(c4ccccc4)OC3C(OC(C)=O)C2OC(C)=O)cc1 (stereo not shown) [Example 35, 4-Methoxy-benzoic acid 4,5-diacetoxy-6-(3-acetylamino-4-chloro-benzyloxy)-3-(7,8-diacetoxy-2-phenyl-hexahydro-pyrano[3,2-d][1,3]dioxin-6-yloxy)-tetrahydro-pyran-2-ylmethyl ester] | > 110 °C (dec.) | 851 nM | 
7 | O=C(OCC1OC(OCc2ccc(Cl)c([N+](=O)[O-])c2)C(O)C(O)C1OC1OC2COC(c3ccccc3)OC2C(O)C1O)c1cccnc1 (stereo not shown) [Example 32, Nicotinic acid 6-(4-chloro-3-nitro-benzyloxy)-3-(7,8-dihydroxy-2-phenyl-hexahydro-pyrano[3,2-d][1,3]dioxin-6-yloxy)-4,5-dihydroxy-tetrahydro-pyran-2-ylmethyl ester] | > 105 °C (dec.) | 405 nM | 
8 | COc1ccc(CC(=O)OCC2OC(OCc3ccc(Cl)c(NC(C)=O)c3)C(OC(C)=O)C(OC(C)=O)C2OC2OC3COC(c4ccccc4)OC3C(OC(C)=O)C2OC(C)=O)cc1OC (stereo not shown) [Example 53, (3,4-Dimethoxy-phenyl)-acetic acid 4,5-diacetoxy-6-(3-acetylamino-4-chloro-benzyloxy)-3-(7,8-diacetoxy-2-phenyl-hexahydro-pyrano[3,2-d][1,3]dioxin-6-yloxy)-tetrahydro-pyran-2-ylmethyl ester] | > 98 °C (dec.) | 266 nM | 
9 | CC(=O)Nc1cc(COC2OC(COC(=O)C(c3ccccc3)c3ccccc3)C(OC3OC4COC(c5ccccc5)OC4C(O)C3O)C(O)C2O)ccc1Cl (stereo not shown) [Example 50, Diphenyl-acetic acid 6-(3-acetylamino-4-chloro-benzyloxy)-3-(7,8-dihydroxy-2-phenyl-hexahydro-pyrano[3,2-d][1,3]dioxin-6-yloxy)-4,5-dihydroxy-tetrahydro-pyran-2-ylmethyl ester] | > 106 °C (dec.) | 84 nM | 
10 | CC(=O)Nc1cc(COC2OC(COC(=O)c3ccccc3I)C(OC3OC4COC(c5ccccc5)OC4C(O)C3O)C(O)C2O)ccc1Cl [Example 43, N-{5-[(4′,6′-O-Benzylidene-6-O-(2-iodo)-benzoyl-β-D-maltosyl)-oxy-methyl]-2-chloro-phenyl)-acetamide] |  |  | 8 nM
11 | CC(NC(=O)OCC1c2ccccc2-c2ccccc21)C(=O)Nc1cc(COC2OC(COC(=O)c3ccccc3)C(OC3OC4COC(c5ccccc5)OC4C(O)C3O)C(O)C2O)ccc1Cl [Example 76, N-(9H-Fluoren-9ylmethoxycarbonyl)-N′-{5-[(6-O-benzoyl-4′,6′-O-benzylidene-β-D-maltosyl)-oxy-methyl]-2-chloro-phenyl}-L-alaninamide] |  |  | 156 nM
12 | COc1ccc(C(=O)OCC2OC(OCc3ccc(Cl)c(NC(C)=O)c3)C(O)C(O)C2OC2OC3COC(c4ccccc4)OC3C(O)C2O)cc1 (stereo not shown) [Example 34, 4-Methoxy-benzoic acid 6-(3-acetylamino-4-chloro-benzyloxy)-3-(7,8-dihydroxy-2-phenyl-hexahydro-pyrano[3,2-d][1,3]dioxin-6-yloxy)-4,5-dihydroxy-tetrahydro-pyran-2-ylmethyl ester] | > 117 °C (dec.) | 61 nM | 
